Measured values taken from US20250009756A1 (Acerus Biopharma Inc., priority 2012, published 2025).
“Also recorded” adds a separate entry of the source.

Key:
pKa of testosterone = conditions: deduced from the molecular structure
[1] = Solubility of testosterone in water, solvents, oils and vehicles

For `C[C@]12CC[C@H]3[C@@H](CCC4=CC(=O)CC[C@@]43C)[C@@H]1CC[C@@H]2O` [Testosterone, 17ß-Hydroxyandrost-4-en-3-one], the pKa (pKa of testosterone) was “no pKa value in the range 1-14”, the Solubility in oils ([1]; castor oil) was “up to 4%” and the “Solubility in castor oil” value ([1]; castor oil pure, maximum) was 3.6%. The “Solubility in castor oil” value ([1]; castor oil with 4% Labrafil) was about 3.36%, the Solubility in oils ([1]; corn oil) was 0.5% and the Solubility in oils ([1]; cottonseed oil) was 0.7%. For the same molecule, the Solubility in oils ([1]; isopropylmyristate) was 0.8%, the Solubility in oils ([1]; peanut oil) was 0.5% and the “Solubility (descriptive)” value ([1]; solvent named in the value) was “freely soluble in methanol and ethanol; also recorded: soluble in acetone and isopropanol; also recorded: insoluble in n-heptane”. The Solubility in oils ([1]; soybean oil) was 0.6% and the “Solubility in castor oil” value ([1]; with fumed silica (Aerosil, CabOsil) and 4.0% Labrafil) was “up to 4.5%”.
